Results: patent US5413915A (priority 1991, dated 1995)
Like-named read-outs stand apart in the source and are kept apart here.

Key:
rat liver microsomes [1] = assay type: biochemical; parameters: unit not given here
microsomes = experiment: Activity of microsome-containing layers after four day time lapse (Example 4); assay type: biochemical
Procedure: At least five spots were prepared on a glass plate according to the procedure in Example 2 above, and dried in air. The spots were translucent but generally colorless during the first day. […] On the third day, two of the remaining spots were "recharged" by a new layer containing fresh NADPH in gelatin. After drying, both spots were essentially colorless. […] Thus, the oxidative activity of microsomes dispersed in gelatin layers persists strongly for at least three days.

rat liver microsomes [2] = assay type: biochemical; parameters: key: Positive: the development of coloration denoted a positive response; Negative: the absence of such coloration denoted a negative response
[3] = in vivo; cited from earlier work
[4] = in vivo; cited from earlier work; remark: listed apart in the source
rat liver microsomes [5] = experiment: Colorimetric reactions of constituents in bi-layer film (Example 1); assay type: biochemical
Procedure: In order to establish the color development behavior of various constituents employed in the invention alone and in several combinations, including two selected test chemicals, seven separate bi-layer film spots were prepared using an otherwise similar gelatin binder medium. The bottom layer of these spots contained reduced pararosaniline (PRA) in all instances except sample 7 wherein the oxidized PRA was substituted to illustrate the coloration of that constituent. An ascorbate salt was selected as typical of a benign test chemical, while benzo(a)pyrene was selected as a representative known carcinogen. The color behavior of the various samples was observed and identified in the following Table 3 together with the compositions of the samples tested.

rat liver microsomes [6] = experiment: Detection of benzo(a)pyrene on bilayer spot (Example 3); assay type: biochemical; conditions: 0.05 mL of 0.5 mg/mL solution on spot
Procedure: Two spots were prepared by manual streaking on a glass plate. The bottom layer of each spot consisted of 0.15 mL of a 4 mg/mL porcine 300 Bloom gelatin solution containing 1.2 mg/mL pararosaniline (PRA) reduced with solid sodium metabisulfite, spread over an area of 1100-1500 mm^2. After drying in air for two hours, the second layer, containing the following materials, was deposited. 0.05 mL of fresh rat liver microsomes containing approximately 62 mg/mL protein was added to 0.30 mL of a sodium phosphate buffer solution (pH=7.4) containing 4 mg/mL porcine 300 Bloom gelatin, and admixed with 0.02 mL of a solution containing 3 mM MgCl2, 50 mM tris(hydroxymethyl-)aminomethane buffer (pH=7.4) and 15 mM KCl. To this solution was added 10.5 mg solid reduced nicotinamide adenine dinucleotide phosphate (NADPH). 0.25 mL of this material was deposited over an area of 1300-1700 mm^2, completely covering the bottom layer, and was air dried for two hours. […] Within less than five minutes, violet color began to appear, and was well developed within twenty minutes.

Salmonella typhimurium = conditions: cited from earlier work
[7] = system: benzo(a)pyrene-induced rat liver microsomes; experiment: Vapor exposure of detection elements in continuous flow chamber (Example 10); assay type: biochemical
Procedure: Detection elements of the present invention were prepared in the following manner. 13 mg PRA dissolved in 9.8 mL 0.1M TRISMOPS buffer (pH=7.4) and 3.2 mL ethanol, was bleached with 71 mg solid sodium sulfite. 0.05 mL Aliquots of the leuco-dye solution were plied to sheets of transparency film, and were air dried for one hour. […] After drying in air, the test spots were cut and mounted in 35 mm tissue culture dishes, then stored at -20° C. until ready for use. Detection elements were visually clear, with a slight flesh tone.
Vapor exposures of detection elements to the carcinogen chloromethyl methyl ether (CH3 --O--CH2 Cl) were carried out at ambient temperature,pressure, and humidity conditions in a continuous flow chamber. Air, metered at a flow rate of 1 L/min, was passed through a flask containing 2.0 mL of a rapidly stirred solution of CH3 --O--CH2 Cl in ethanol. After a glass wool plug to remove entrained liquid mists, the loaded air stream entered a 10 mm diameter tube into which the detection elements were mounted, without pre-moistening, parallel to the air flow. Flow conditions were calculated to be laminar (estimated Reynolds number=150) under these conditions. Exposure was conducted for ten minutes, after which the detection elements were removed and analyzed colorimetrically by taping to the sample beam exit slit of a double-beam spectrophotometer, and scanning the absorption spectrum versus an unexposed detection element affixed to the reference beam. At one exemplary test condition, in which the initial solution concentration of CH3 --O--CH2 Cl was 1.2M, 0.4 mL of the starting solution was recovered at the end of the exposure period. Based on both material balance and Raoult's law calculations, a single value of approximately 5200 ppm was determined for the airborne concentration of CH3 --O--CH2 Cl during the exposure. […] NADPH oxidation, equivalent to 0.4 mM or approximately 20% of the total NADPH, occurred during the 10-minute exposure, but ceased thereafter. By contrast, leuco-dye oxidation continued to intensify for some 2-4 hours, to a final level of about 0.5 mM in the detection element.
In similar experiments to FIG. 7, but in which the airborne concentration of CH3 --O--CH2 Cl was adjusted by lowering its solution concentration, color development is proportional to delivered dose, both by direct liquid administration and vapor exposure. […] For a 10-minute exposure, approximately 0.1% of the total CH3 --O--CH2 Cl in the air stream is absorbed and reacted by detection elements mounted parallel to the air flow.

rat liver microsomes [8] = experiment: Color development in detection elements with different leuco dyes (Table 2); assay type: biochemical; conditions: applied dose 10 μmol (formaldehyde 1 μmol); for New Color Development, NBTZ: unexposed control also Black
Procedure: Solutions containing 0.5 mM of the respective dyes in 0.1 M TRIS buffer, pH=7.4 (except for nitro blue tetrazolium, 5.0 mM in 50% ethanolic TRIS, pH=7.4) were bleached with a few crystals of sodium sulfite or sodium dithionite, then plied in 0.02 mL aliquots as test spots on a clear sheet of transparency film. Spontaneous color development in air was noted (Table 2). Subsequently, a suspension of rat liver microsomes containing 1 mM NADPH and 1 mg/mL gelatin in 0.1 M TRIS-MOPS buffer (pH=7.7) was plied in 0.05 mL aliquots over the dried leuco-dye test spots. After drying, color development condition was noted, and the test spots saved for exposure tests to chemical substances (Table 2). Exposures were carried out by layering 0.01 mL of 0.1-1.0 M solutions of test chemical substances onto the test spots, and changes in color noted over time.

[9] = Direct reaction of chemicals with the indicator leuco dye; conditions: without metabolic activation
rat liver microsomes [10] = experiment: Color development in detection elements with different leuco dyes (Table 2); assay type: biochemical
microsomal protein = experiment: In vitro microsomal activation of hydrazine: leuco dye oxidation (Example 9); assay type: biochemical; conditions: 0.5 mM hydrazine hydrate
Procedure: Test of leuco pararosaniline color formation and NADPH redox states, as a function of time after hydrazine addition, was conducted in vitro, and UV-visible absorbance changes monitored. All systems were aerobic (at least 0.2 mM O2). 0.03 mM Pararosaniline was reduced by addition of 0.1 mM sodium sulfite in 0.1 M 10 tris(hydroxymethyl-)aminomethane buffer (pH=7.5), and 0.3 mM NADPH with approximately 0.5 mg/mL microsomal protein (curves indicated with "+m"). At time=0, hydrazine hydrate (pH=7.5) was added to a final concentration of 0.5 mM. […] Approximately 60% of the leuco dye was oxidized (0.02 mM) during the reaction, and roughly twice that amount of […].

[11] = midpoint redox potential; cited from earlier work
[12] = no microsomes, no NADPH, bottom PRA-reduced (samples 5, 6)
[13] = 10-minute vapor exposure, approximately 5200 ppm

c1ccc2c(c1)cc1ccc3cccc4ccc2c1c34 [Benzo(a)pyrene]
Detector Response, threshold dose (rat liver microsomes [1]): 0.01
Color developed on spot (microsomes; fourth day, NADPH-recharged spot): strong violet color
Color developed on spot (microsomes; fourth day, not recharged): strong violet color
Color developed on spot (microsomes; second day, not recharged): strong violet color
Color developed on spot (microsomes; third day, recharged with fresh NADPH): deep purple color
Invention Response (rat liver microsomes [2]): Positive
Carcinogenic Status [3]: Positive
Tumorigen Activity [3]: +
Teratogen Activity [4]: +
COLOR REACTION (rat liver microsomes [5]; [12]): No
COLOR REACTION (rat liver microsomes [5]; top layer with rat liver microsomes and NADPH, bottom PRA-reduced (sample 4)): Yes
Time until violet color began to appear (rat liver microsomes [6]): less than five
Time until violet color well developed (rat liver microsomes [6]): twenty

[Cd+2] [Cd(II)]
Tumorigen Activity, assignment based on IARC reports [3]: +
Mutagenicity (Salmonella typhimurium): +
Dose-response shift, BNF-induced detection elements versus uninduced controls (cytochrome P450IA1; compared with the shift seen for hydrazine): less significantly
Teratogen Activity [4]: +

COCCl [Chloromethyl methyl ether]
Detector Response, threshold dose (rat liver microsomes [1]): 0.1
Tumorigen Activity [3]: +
Mutagenicity (Salmonella typhimurium): +
NADPH oxidation in detection element [7, 13]: 0.4 mM
NADPH oxidation, share of the total NADPH [7, 13]: approximately 20%
Time over which leuco-dye oxidation continued to intensify ([7]; after 10-minute exposure): 2 to 4 h
Leuco-dye oxidation, final level in the detection element ([7]; after 10-minute exposure, approximately 5200 ppm): about 0.5 mM
Teratogen Activity [4]: +

C=O [Formaldehyde]
Detector Response, threshold dose (rat liver microsomes [1]): 0.01
New Color Development, Methyl Violet leuco dye (rat liver microsomes [8]): Violet
New Color Development, Naphthol Blue-Black leuco dye (rat liver microsomes [8]): None
New Color Development, Nile Blue A leuco dye (rat liver microsomes [8]): Blue
New Color Development, Safranin O leuco dye (rat liver microsomes [8]): None
New Color Development, NBTZ (rat liver microsomes [8]): Black
Invention Response (rat liver microsomes [2]): Positive
Carcinogenic Status [3]: Probable
Tumorigen Activity [3]: +
Mutagenicity (Salmonella typhimurium): -
Mutagenicity, direct-acting mutagen (Salmonella typhimurium): +
Direct reaction with the indicator leuco dye [9]: react directly with the indicator dye
Teratogen Activity [4]: +

NN [Hydrazine]
Detector Response, threshold dose (rat liver microsomes [1]): 0.1-20
Color of detection elements with leuco methylene blue in combination with pararosaniline (rat liver microsomes [10]; exposure to hydrazine): magenta color
Color of detection elements using leuco malachite green (rat liver microsomes [10]; exposure to hydrazine solutions, separate tests): visually detectable green color
Leuco dye oxidized during the reaction (microsomal protein): 0.02 mM
Time to asymptote of leuco-dye oxidation and NADPH reduction (microsomal protein): 2.0 to 2.5 h
Leuco dye oxidized during the reaction (microsomal protein; 0.03 mM PRA, 0.3 mM NADPH, microsomes): Approximately 60%
New Color Development, NBTZ (rat liver microsomes [8]): Black
Tumorigen Activity [3]: +
Mutagenicity (Salmonella typhimurium): +
Em7 [11]: -0.73 V
Gain of sensitivity, 50%:50% BaP-induced and uninduced microsomes versus uninduced (cytochrome P450IA1): approximately 10 fold
Loss of sensitivity, BNF-induced versus uninduced microsomes (cytochrome P450IA1): 20-50 fold
Teratogen Activity [4]: +

Oc1ccccc1 [Phenol]
Detector Response, threshold dose (rat liver microsomes [1]): 0.02
Invention Response (rat liver microsomes [2]): Positive
Carcinogenic Status [3]: Possible
Tumorigen Activity [3]: -
Dose-response shift, BNF-induced detection elements versus uninduced controls (cytochrome P450IA1): less significantly
Teratogen Activity [4]: -

ClC=C(Cl)Cl [Trichloroethylene]
Detector Response, threshold dose (rat liver microsomes [1]): 150
Tumorigen Activity [3]: +
Mutagenicity (Salmonella typhimurium): +
Dose-response shift, BNF-induced detection elements versus uninduced controls (cytochrome P450IA1): less significantly
Teratogen Activity [4]: +

O=C1O[C@H]([C@@H](O)CO)C(O)=C1O [free ascorbic acid, ascorbic acid]
COLOR REACTION (rat liver microsomes [5]; [12]): color reaction occurs
